Results on eleven molecules are retold here after patent US7156881B2, “Counteracting bioprosthetic calcification” (The Children's Hospital of Philadelphia, priority 2002, dated 2007).

Series [1] in a line: Kinetics of epoxy-ring opening with different nucleophiles (t-butyl glycidyl ether in water). As to conditions: for reactivity relative to nucleophiles without a sulfur atom: 20° C. and pH of about 7; for Reacted substrate / k · 10^3: 20° C., pH ca. 7. Format: physicochemical. The text has this:
Pursuant to the present invention, the functional groups need to cleave an epoxy ring, and nucleophilic groups are illustrative in this respect.

A short description of series [2]: Kinetics of epoxy-ring opening with different nucleophiles (triglicidyl amine in water). The format is physicochemical. The conditions noted are these: 20° C.; for K * 10^3 / Reacted substrate: pH ca. 7; for rate of reaction with TGA-epoxy (k): pH 7.4, 20 mM of MABP. An excerpt: The bioprosthetic materials treated by both MABP and TGA show a significant improvement in anti-calcification ability. Consequently, it is believed that the MABP has successfully met the above-mentioned criteria, i.e., the reactive functional group is active enough to dominate the co-attachment reaction between MABP and TGA, and to cause MABP to attach to a TGA epoxide more completely.

Series [3] is described as follows: Rat weight in 21-day subdermal implant study. The conditions noted are these: 21-day rat subdermal implants.
Experimental: All materials were rinsed thoroughly with normal saline, and 1 cm^2 pieces of aortic wall, pericardium, or individual cusp leaflets crosslinked with 100 mM TGA with the inclusion of 20 mM MABP, as described above with daily replacement of solutions for 7 days. After thorough rinse with normal saline, biomaterials were surgically implanted in dorsal subdermal pouches of 75–80 g male Sprague-Dawley rats as previously described. Animals were sacrificed after 21 days, implants recovered, rinsed, dried, and analyzed for Ca content by atomic absorption spectroscopy (AA).
In series [4] the test system is porcine aortic valve cusps. The series is described as follows: 21-day rat subdermal implants, Ca content by atomic absorption: cusp. The format is in vivo, Sprague-Dawley rats. The conditions noted are these: Cusp implanted. Here is the method:
(§1) A series of bioprosthetic material samples were prepared, in order to compare the anti-calcification efficacy of TGA-MABP with TGA crosslinking alone. The material used were porcine aortic valve cusps, porcine aortic wall, and bovine pericardium. These materials were obtained fresh at slaughter and transported to the laboratory on ice.

Series [5] is described as follows: TGA cross-linking of bovine pericardium, shrink temperature (Ts) by DSC. The format is physicochemical. As to conditions: for shrink temperature (Ts): 100 mM TGA, borate mannitol buffer pH 7.4, room temperature. Here is the method: Bovine pericardium was obtained fresh at slaughter and transported to the lab on ice. After extensive rinsing with normal saline, the tissue was cut into 1 cm squares and segregated into 5 groups for crosslinking as described below. Reactions were carried out at room temperature on a rocker platform for 7 days with daily replacement of each solution with one freshly prepared in borate mannitol buffer (9.33 g/l sodium tetraborate, −˜2 g mannitol to pH 7.4). Pericardial samples were removed from the reaction vessels daily, rinsed and stored individually at 4° C. in normal saline for shrink temperature determination (Ts) by Differential Scanning […] (DSC) analysis at the end of the experiment.
MABP stock solution was prepared daily by adding water, neutralizing with NaHCO3, and diluting to one of the three desired concentrations (2 mM, 20 mM, 100 mM) in boratemannitol buffer. TGA then was added to each solution to a final concentration of 100 mM TGA. Two additional groups were treated solely with 100 mM TGA in the same buffer for 7 days, and one of these treated again on day 8 with 100 mM MABP in buffer.
Further experiments were done testing the anti-calcification potential of MABP co-attachment utilized the maximum non-interfering condition tested: 20 mM MABP and 100 mM TGA in borate-mannitol buffer, pH 7.4. Those experimental data are shown in Table III and graphically in FIG. 1.

Series [6] deals with bovine pericardial calcification. The conditions noted are these: TGA-crosslinking methodology, related art; cited from earlier work.
The test system of series [7] is aortic wall segment of a bioprosthetic implant. The conditions noted are these: TGA-crosslinking methodology, related art; cited from earlier work.
The test system of a further series is bovine pericardium. The experiment in a line: 21-day rat subdermal implants, Ca content by atomic absorption: pericardium. The format is in vivo, Sprague-Dawley rats. As to conditions: Pericardium implanted. Here is the method:
as §1

Another series concerns porcine aortic wall. The series is described as follows: 21-day rat subdermal implants, Ca content by atomic absorption: aortic wall. Format: in vivo, Sprague-Dawley rats. As to conditions: Aortic wall implanted. Here is the method: as §1
[8] abbreviates: substrate 0.1 M, epoxide 0.3 M, time of reaction 3 h.
Setting [9] is: substrate 0.1 M, epoxide 0.3 M, time of reaction 19 h.
[10] abbreviates: substrate 0.2 M, epoxide 0.1 M, time of reaction 1 h.
[11] abbreviates: substrate 0.4 M, epoxide 0.3 M, time of reaction 120 h.
The mark [12] stands for this setting: substrate 0.1 M, epoxide 0.3 M, time of reaction 48 h.
[13] abbreviates: substrate 0.2 M, epoxide 0.06 M, time of reaction 1.75 h.
Where [14] appears, read: substrate 0.2 M, epoxide 0.1 M, time of reaction 2 h.
The mark [15] stands for this setting: substrate 0.1 M, epoxide 0.3 M, time of reaction 120 h.
[16] abbreviates: substrate 0.1 M, epoxide 0.3 M, time of reaction 5 min.
Where [17] appears, read: substrate 0.1 M, epoxide 0.3 M, time of reaction 15 min.

Marks after values point to notes of the source that are not given here.

On to `CSCCC(NC(C)=O)C(=O)O` (racemic) [N-Acetyl-DL-methionine], for which, in series [1], the “reactivity relative to nucleophiles without a sulfur atom” value is recorded as “at least twenty times more reactive”. In addition, in series [1] (setting [8]), the Reacted substrate was determined as 33% and the “k · 10^3” value stood at 473 l/mol · h. For the same molecule, in series [1] (setting [9]), the Reacted substrate is on record as 89% and the “k · 10^3” value was 488 l/mol · h.

As for `N[C@@H](CS)C(=O)O` [Cysteine], in [2] (setting [10]), the “K * 10^3” value is on record as 1618 1/mol * h and the Reacted substrate was determined as 13%. Besides, the “reactivity relative to nucleophiles without a sulfur atom” value in series [1] was “at least twenty times more reactive”. For the same molecule, in series [1] (setting [10]), the Reacted substrate is 13% and the “k · 10^3” value stood at 1618 l/mol · h.

Molecule `O=CCCCC=O` [Glutaraldehyde] yielded a Rat weight in [3] (Cusp implanted) of 268.8 ± 6.5 g. The Ca in series [4] (21-day rat subdermal implants) was 89.03 +/− 5.59* μg/mg dry wt.

For `CC(O)(P(=O)(O)O)P(=O)(O)O` [HEDP], in [1] (setting [11]), the Reacted substrate is on record as 5.5% and the “k · 10^3” value came to 1.6 l/mol · h.

For the molecule `c1c[nH]cn1` [Imidazole], in series [1] (setting [12]), the Reacted substrate worked out at 28% and the “k · 10^3” value came out at 24 l/mol · h.

As to `O=P(O)(O)C(CNCCS)P(=O)(O)O` [MABP, 2-(2-mercaptoethylamino)-ethylidene-1,1-bisphosphonate], in [2], the “rate of reaction with TGA-epoxy (k)” value was 1.2 mol⁻¹ h⁻¹. For the same molecule, in [2] (setting [13]), the “K * 10^3” value was 1120 1/mol * h and the Reacted substrate is 10%. Besides, in series [3] (inclusion of MABP), the “effects on rat weight gain” value is recorded as “no significant effects”. The “interference of MABP with the TGA crosslinking process (DSC)” value in series [5] (equimolar concentration of MABP and TGA (100 mM each) versus the other conditions) is “grossly slowed the crosslinking process”.

For the molecule `O=P(O)(O)C(CS)P(=O)(O)O` [MEBP, 2-mercaptoethlidene-1,1-bisphosphonate], in [2], the “rate of reaction with TGA-epoxy (k)” value was 0.035 mol⁻¹ h⁻¹. In series [2] (setting [14]), the “K * 10^3” value was 35 1/mol * h and the Reacted substrate is recorded as 0.7%.

With `CC(=O)N[C@@H](Cc1c[nH]cn1)C(=O)O` [N-Acetyl-L-histidine], in [1] (setting [15]), the Reacted substrate came out at 60% and the “k · 10^3” value turned out to be 29 l/mol · h.

Take `C1OC1CN(CC1CO1)CC1CO1` (centres unmarked) [TGA, triglycidyl amine]: in series [6], the “inhibiting bovine pericardial calcification” value was “less effective”. Moreover, in [7], the “inhibition of calcification of the aortic wall segment” value is “relatively ineffective”. For the same molecule, the Ca is listed as 11.23 +/− 4.74 μg/mg dry wt in the series on bovine pericardium; 2.07 +/− 0.31 μg/mg dry wt in [4] (rat subdermal implants, prev. exp.); 7.73 +/− 0.90 μg/mg dry wt in the series on porcine aortic wall. Besides, the Rat weight in series [3] (Aortic wall implanted) was 247.8 ± 7.9 g; in [3] (Pericardium implanted), 268.2 ± 9.9 g. Also, the “shrink temperature (Ts)” value is reported as 72.6 +/− 1.0 in [5] (Day 1 of crosslinking); 77.4 +/− 0.5 in series [5] (Day 2 of crosslinking); 78.2 +/− 0.3 in series [5] (Day 3 of crosslinking); 79.6 +/− 0.4 in [5] (Day 4 of crosslinking); 80.2 +/− 0.3 in series [5] (Day 6 of crosslinking); 81.0 +/− 0.6 in series [5] (Day 7 of crosslinking).

For `O=S(O)(O)=S` [Thiosulfate], the “K * 10^3” value is recorded as 23000 1/mol * h in series [2] (setting [16]) and 17000 1/mol * h in [2] (setting [17]). The Reacted substrate worked out at 30% in [2] (setting [16]), 52% in series [2] (setting [17]), 30% in series [1] (setting [16]) and 52% in series [1] (setting [17]). In addition, the “reactivity relative to nucleophiles without a sulfur atom” value in [1] is given as “at least twenty times more reactive”. Besides, the “k · 10^3” value in series [1] (setting [16]) is given as 23 000 l/mol · h; in series [1] (setting [17]) it was 17 000 l/mol · h.

Turning to Phosphate, in series [1] (setting [11]), the Reacted substrate was 12% and the “k · 10^3” value was 3.9 l/mol · h.
